According to article PMC8760490, “Discovery of novel furanylbenzamide inhibitors that target oncogenic tyrosine phosphatase SHP2 in leukemia cells” (The Journal of Biological Chemistry, 2021):
Entries after “also recorded” stand apart in the source; their conditions may differ.

Experiments:
[1] = molecular target: T1, SHP2-E76K (Homo sapiens, UniProt Q06124, E76K); test: Time-dependent inhibition (preincubation 1-60 min); format: biochemical; conditions: preincubation 1, 5, 10, 20 or 60 min with SHP2-E76K
T1 construct: Recombinant human full-length SHP2 (1–594) WT and E76K mutants; made in house
T1 sequence (Q06124 1-593 E76K): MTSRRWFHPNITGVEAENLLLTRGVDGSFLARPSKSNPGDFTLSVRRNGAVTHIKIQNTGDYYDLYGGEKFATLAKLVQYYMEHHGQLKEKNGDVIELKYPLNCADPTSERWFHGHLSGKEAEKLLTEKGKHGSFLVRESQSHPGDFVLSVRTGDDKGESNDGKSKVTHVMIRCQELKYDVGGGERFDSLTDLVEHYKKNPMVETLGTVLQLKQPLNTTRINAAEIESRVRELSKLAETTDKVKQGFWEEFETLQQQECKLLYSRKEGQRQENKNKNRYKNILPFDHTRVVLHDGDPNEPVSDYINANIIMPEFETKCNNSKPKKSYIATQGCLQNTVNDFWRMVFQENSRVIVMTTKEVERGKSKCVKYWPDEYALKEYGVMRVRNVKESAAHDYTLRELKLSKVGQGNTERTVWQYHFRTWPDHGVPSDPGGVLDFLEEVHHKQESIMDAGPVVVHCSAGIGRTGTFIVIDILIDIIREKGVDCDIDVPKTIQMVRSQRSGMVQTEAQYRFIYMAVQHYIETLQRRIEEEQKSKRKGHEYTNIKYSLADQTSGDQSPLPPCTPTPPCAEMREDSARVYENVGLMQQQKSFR
Procedure: PTPs contain a highly nucleophilic cysteine that is essential for catalytic activity but is susceptible to oxidation and covalent modifications, which abrogate its nucleophilic function and phosphatase activity ([26]). Because the methylenebenzothiophenone moiety of our inhibitors could potentially act as a Michael acceptor and thus covalently bind to the catalytic cysteine, we tested whether the observed inhibition of SHP2 was dependent on the preincubation time of inhibitor and enzyme. An irreversible covalent inhibitor may show time-dependent inhibition, with increased potency at longer incubation times. Conversely, the potency of a noncovalent inhibitor is expected to be insensitive to the time it is incubated with the enzyme. To test for time-dependent inhibition, SBI-2130 at ten different concentrations was preincubated with SHP2-E76K for 1, 5, 10, 20, or 60 min, before the DiFMUP substrate was added to the reaction mixture and initial rates were recorded (Fig. 3C). […] In addition, we used mass spectrometry to test whether inhibitor:protein adducts are being formed. Specifically, we incubated SHP2cat (5 μM) with SBI-4668 (100 μM) in assay buffer for various times (1, 5, 20, and 60 min) before trypsin proteolysis and subsequent mass spectrometry analysis. […] Finally, we performed a jump-dilution experiment to test for irreversible inhibition of SHP2. […]

[2] = molecular target: T2, SHP2cat (Homo sapiens, UniProt Q06124); test: Protein thermal shift (PTS) assay; format: binding; conditions: dose response
T2 construct: the SHP2 catalytic domain (SHP2cat; residues 248–527); made in house
T2 sequence (Q06124 248-527): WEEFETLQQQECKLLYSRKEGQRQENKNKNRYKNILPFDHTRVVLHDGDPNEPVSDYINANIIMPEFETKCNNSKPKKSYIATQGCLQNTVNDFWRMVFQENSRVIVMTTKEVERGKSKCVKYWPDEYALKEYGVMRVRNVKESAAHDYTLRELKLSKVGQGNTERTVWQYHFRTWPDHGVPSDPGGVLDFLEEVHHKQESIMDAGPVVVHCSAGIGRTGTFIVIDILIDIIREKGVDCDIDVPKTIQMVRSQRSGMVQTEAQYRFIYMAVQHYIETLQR
From the text: We confirmed specific and dose-dependent binding of inhibitors to SHP2 by PTS, which monitors the thermal stability of a target protein in vitro ([40]). […] In addition, we confirmed the inhibitory activity of several furanylbenzamide inhibitors, including the top two compounds SBI-2130 and SBI-4668, in SHP2cat inhibition assays using the alternative substrate 3-O-methylfluorescein phosphate (OMFP), which features a peak fluorescence emission that is red-shifted by ∼75 nm compared with DiFMUP. The Km value of OMFP for SHP2cat was determined to be 50 μM. An OMFP fluorescence intensity–based assay was used to perform inhibitor dose–response experiments and determine IC50 values.
Differential scanning fluorimetry (also known as protein thermal shift) measurements of SHP2cat were performed using optimized methods and conditions in accordance with those previously described ([36], [41], [49]). SBI-4668 was spotted at different concentrations into MicroAmp 384-well real-time PCR plates (catalog no.: 4483285; Applied Biosystems) using an Echo 555 Liquid Handler. […] Plates were analyzed using a ViiA 7 Real-Time PCR instrument (Applied Biosystems) and a 12 min temperature gradient with a temperature increase of 0.075 °C/s. The melting temperature and thermal profiles were determined as described previously using Protein Thermal Shift Software, version 1.3 (Applied Biosystems) ([36], [49]).

| SMILES | time-dependent inhibition [1] | change of SHP2cat melting temperature (Tm) vs DMSO [2] |
| --- | --- | --- |
| Nc1ccc(NC(=O)c2cc(-c3ccc(/C=C4\Sc5ccccc5C4=O)o3)ccc2O)cc1 [SBI-2130, (Z)-N-(4-Aminophenyl)-2-hydroxy-5-(5-((3-oxobenzo[b]thiophen-2(3H)-ylidene)methyl)furan-2-yl)benzamide] | No time-dependent inhibition; also recorded: not time dependent | – |
| O=C(Nc1ccccc1)c1cc(-c2ccc(/C=C3\Sc4ccccc4C3=O)o2)ccc1O [SBI-4668, (Z)-2-Hydroxy-5-(5-((3-oxobenzo[b]thiophen-2(3H)-ylidene)methyl)furan-2-yl)-N-phenylbenzamide] | – | dose-dependently increased the melting temperature |
